Experimental data published in US9056136B2, “Weakly basic 2-nitroimidazoles for the non-invasive detection of tissue hypoxia” (Natural Pharmacia International, Inc., priority 2006, dated 2015).
Like-named read-outs stand apart in the source and are kept apart here.

Key:
[1] = humans; cited from earlier work
[2] = tested on: Chinese hamster V79-4 lung fibroblasts; assay: pH-dependent binding to anoxic V79-4 cells, ELISA of cell lysates; assay type: cell-based; details: for binding (ng/g protein ± SE): anoxic V79 cells, 200 uM, 3 hours, 5% CO2+95% nitrogen
Source text: Weakly basic 2-nitroimidazole hypoxia compounds of the invention are more sensitive detectors of hypoxia in cells at high pH than are 2-nitroimidazoles that lack a weakly basic moiety, such as CCI-103F. pH-dependent binding for weakly basic pimonidazole was compared to that for CCI-103F in Chinese hamster V79-4 lung fibroblasts under conditions of short-term anoxia. The pH range used (6.4 to 7.4) encompasses about 90% of extracellular pHs measured in human tumors. Eagle's minimum essential medium (MEM) containing 4.5 g/L glucose, but no carbonate, was warmed to 37° C. in a warm room and adjusted to pH 6.4, 6.8 and 7.4 by the addition of sodium bicarbonate under a stream of 5% CO2+95% nitrogen. Fetal bovine serum (FBS) was added to produce an Eagle's pH adjusted MEM containing 10% FBS. Attached V79-4 cells were harvested with EDTA-trypsin and diluted in 25 mL of the pH adjusted MEM at a concentration of 3×10^5 cells/mL. To this solution was added an amount of a stock solution of pimonidazole HCl or CCI-103F to produce a final concentration of 200 uM. The cell solution was then incubated under an atmosphere of 5% CO2+95% nitrogen with agitation for 3 hours. Cell lysates were analyzed by ELISA and the data normalized to protein content. The experiments for both markers were performed in triplicate.

V79 cells = details: cited from earlier work
[3] = cited from earlier work
[4] = tested on: spontaneous canine tumors; assay: immunostaining of hypoxia marker adducts in biopsies of spontaneous canine tumors; assay type: in vivo, dogs
Source text: Weakly basic 2-nitroimidazole hypoxia compounds of the invention are more efficient at detecting fluctuating hypoxia than are compounds that lack a weakly basic moiety when measured in large spontaneous canine tumors analogous to those occurring in humans. The hydrochloride salt of the weakly basic hypoxia marker, pimonidazole, was given to 12 dogs at a dosage of 0.5 gm/m^2 body surface area. Seven hours later, all 12 dogs received CCI-103F, a marker that lacks a weakly basic moiety. Two to four, widely separated biopsy samples were taken from viable regions in each tumor and immediately placed in cold 10% neutral buffered formalin. The specimens were fixed for 18-24 hours at 4° C. and then transferred into cold 70% ethanol and stored at 4° C. until mounted into paraffin blocks. Sections from formalin-fixed paraffin-embedded biopsy samples were immunostained for pimonidazole and CCI-103F binding using primary rabbit polyclonal antisera to pimonidazole and CCI-103F adducts respectively. Immunostained sections were exhaustively scanned at 400× by means of an Axioskop 50 microscope and Fluar objective and the percent immunostaining for pimonidazole and CCI-103F adducts was measured.

central nervous system = details: clinical use, 0.5 g/m2; 750-1000 mg/patient; 50% of the maximally tolerated single dose; cited from earlier work

SMILES | plasma half-life (t1/2) [1] [h] | binding (ng/g protein ± SE) ([2]; pH 6.4) [ng/g protein] | binding (ng/g protein ± SE) ([2]; pH 6.8) [ng/g protein] | binding (ng/g protein ± SE) ([2]; pH 7.4) [ng/g protein] | Ci/Ce in V79 cells (V79 cells; pH 6.4) | Ci/Ce in V79 cells (V79 cells; pH 6.8) | Ci/Ce in V79 cells (V79 cells; pH 7.4) | pKa [3] | extent of immunostaining relative to CCI-103F, factor on average ([4]; 12 dogs, pimonidazole HCl 0.5 gm/m^2, CCI-103F seven hours later, paired t test) | extent of binding relative to CCI-103F within a single tumor ([4]; regions of one canine tumor, FIGS. 1A-1D) | intensity of binding compared with CCI-103F ([2]; pH 6.4 to 7.4, anoxic V79-4 cells) | central nervous system (CNS) effects (central nervous system)
COCC(O)Cn1ccnc1[N+](=O)[O-] (centres unmarked) [misonidazole] | 9.3 | – | – | – | – | – | – | – | – | – | – | –
O=[N+]([O-])c1nccn1CC(O)COC(C(F)(F)F)C(F)(F)F (centres unmarked) [CCI-103F] | – | 90 ± 7 | 118 ± 17 | 125 ± 5 | ~1.0 | ~1.0 | ~1.0 | – | – | – | – | –
O=[N+]([O-])c1nccn1CC(O)CN1CCCCC1 (centres unmarked) [pimonidazole, 1-(2-hydroxy-3-piperidinopropyl)-2-nitroimidazole] | 5.1 ± 0.8 | 144 ± 15 | 293 ± 19 | 363 ± 22 | 1.0 | 1.6 | 3.3 | 8.7 | 1.25 | greatly exceeded it in other regions | greater than that for CCI-103F at all pH levels tested | extremely low frequency of even the mildest of central nervous system (CNS) effects
O=C(Cn1ccnc1[N+](=O)[O-])NCC(F)(F)C(F)(F)F [EF5, 2-(2-nitro-1H-imidazol-1-yl)-N-(2,2,3,3-pentafluoropropyl)-acetamide] | 11.7 ± 2.7 | – | – | – | – | – | – | – | – | – | – | –
